The values below come from US20220033405A1, “PHARMACEUTICAL COMPOSITION FOR PREVENTING OR TREATING CANCER CONTAINING PLK1 INHIBITOR AS ACTIVE INGREDIENT” (NATIONAL CANCER CENTER, priority 2018, published 2022).

Assay [1] concerns JIMT1 human breast cancer cells. The assay is described as follows: Cancer cell growth inhibition, M2 variants in JIMT1. It is filed as cell-based. As to the method: (§1) To examine the ability of the compound to inhibit the growth of the breast cancer cell line, the compounds was treated at each indicated μM concentration 1 and 3 days after cell attachment, and the control was treated with a 0.1% solvent (DMSO). After another two days, the cell lines that were attached to the culture plate and grew were rinsed with 1×PBS and treated with 4% paraformaldehyde at room temperature for 10 minutes to fix the cells. Then, after cells were rinsed twice with PBS, the fixed cells were treated with a 0.5% Triton X-100 solution and reacted at room temperature for 15 minutes, rinsed another three times with PBS, and then treated with a DAPI reagent at 0.5 μg/ml, and reacted at 37° C. for 10 minutes to stain the cell nuclei. After the cells were additionally rinsed once with PBS, cells stained with DAPI were photographed by Cytation 3, and the resulting images were analyzed with Gen5 software (Biotek, USA). Meanwhile, cells that grew in a floating manner without being attached to the culture plate were treated with a 4% paraformaldehyde solution, reacted at room temperature for 10 minutes to fix the cells, and then photographed in a bright field by Cytation3, and the resulting images were analyzed by Gen5 software (Biotek, USA).

Assay [2] concerns HepG2 human liver cancer cells. The assay is described as follows: Reactivity of M2 variants in HepG2. In kind it is cell-based. As to the method: as §1
To analyze the ability to inhibit the growth of liver cancer cell lines, 6.6×10^3 HepG2 cells per well, 1×10^3 cells of each of Hep3B, SNU-475, and SNU-449 per well, and 2×10^3 SNU-387 cells per well were aliquoted in a 96-well plate, cultured in the same manner as described above, treated with Compound 2 (M2), Compound 3 (M4), Compound 4 (M21), Compound 5 (M23), and Compound 6 (M25), and then the ability to inhibit the growth of cells was analyzed.

For another assay, the system named is PLK1. Kind of assay: PLK1 position in the cell (r-tubulin, PLK1, DAPI staining). It is filed as cell-based. The note with it: middle stage of cell division.
The test system of assay [3] is NCAPG2 in HEK293 cell line. The assay is described as follows: Staining of NCAPG2 in chromosome arm and kinetochore. It is filed as cell-based. The following applies: HEK293, 50 uM, 24 hours, compared to the control.
For another assay, the system named is SNU-449. The assay is described as follows: Cell cycle by flow cytometry, phospho-histone H3 (Ser10) staining. In kind it is cell-based. The following applies: M2 20, 40, 80 μM, BI2536 20 nM. As to the method:
Flow cytometry equipment was used to confirm the effect on the cell cycle in the case of treatment with Compound 2 (M2). SNU-449, which is one of the liver cancer cell lines, were treated with Compound 2 (M2) at each of concentrations of 20, 40, and 80 μM after 1 day and 3 days, and were harvested after another 2 days.
Furthermore, it was intended to more specifically stain a cell population that stopped in the metaphase of cell division using a phospho-histone H3 (Ser10) antibody capable of specifically staining only the cells that stopped in the metaphase of cell division. As a positive control, cells were treated with BI2536 known as a PLK1 kinase inhibitor at 20 nM and used to observe cells in the metaphase of cell division and an increase in the G2/M phase.

The test system of assay [4] is HepG2 orthotopic xenograft. The assay is described as follows: Liver cancer orthotopic xenograft model (HepG2), 19 injections. The note with it: M2 9.1 mg/kg. In kind it is in vivo, BalB/c nude mice. As to the method:
5×10^6 HepG2 cells, which are a hepatocellular carcinoma cell line, were injected into the back skin of BalB/c nude mice, and when a sufficient cancer tissue was formed about 3 weeks later, the tissue was removed, uniformly cut into 1 mm^3, and transplanted into the right median lobe of the liver by excising the abdomen within 1 cm.
The doses of 9.1 mg/kg of M2 and 1 mg/kg of BI2536 were selected based on the present inventor's previous in vitro experiments on HCC cells. Administration began 7 days after cell injection, and an equivalent amount of DMSO for the highest concentration of drug was used as a solvent control for each experiment. Each drug was injected a total of 19 injections based on 5 times/week.

For assay [5], the system named is HepG2 orthotopic xenograft. The assay is described as follows: Liver cancer orthotopic xenograft model (HepG2), 5 and 20 mg/kg. It is filed as in vivo, BalB/c nude mice. The following applies: M2 5 and 20 mg/kg i.p. once every two days, 10 treatments for 3 weeks. As to the method:
Another experiment was performed on the same liver cancer cell line by varying the experimental method. 5×10^6 HepG2 cells were injected into the backs of BalB/c nude mice, and when a sufficient cancer tissue was formed about 3 weeks later, the tissue was removed, uniformly cut into 1 mm^3, and transplanted into the right median lobe of the liver by excising the abdomen within 1 cm.
Small spots were confirmed on the MRI image about 10 days after transplanting the liver cancer tissue into 20 BalB/C nude mice by the above method, so that rodents with well-established liver cancer were divided into 3 groups (about 50 to 60%) (see FIG. 21A), a control and a hit (M2) material at 5 mg/kg and 20 mg/kg were injected into the abdominal cavity once every two days using less than 1.5% DMSO as a solvent (vehicle), and once a week, MRI images were used to select (follow up) rodents with constant tissue growth. Then, in a state in which the rapidly growing cancer tissue was 1 cm or less, the cancer tissue was observed after sacrificing the mice (10 treatments for 3 weeks).

The subject of another assay is human liver cancer PDX. The assay is described as follows: Orthotopic xenograft model using human liver cancer PDX. In kind it is in vivo, BalB/C nude mice. The following applies: M2 40 mg/kg i.p. once every two days, 11 treatments for 3 weeks. As to the method: A cancer tissue isolated from human liver cancer was transplanted into skin tissues of BalB/C nude mice and the skin tissues were grown into cancer tissues, so that a tissue established as a PDX model was used, uniformly cut into 1 mm^3, and transplanted into the right median lobe of the liver by excising the abdomen within 1 cm. Sm all spots were confirmed on the MRI image about 10 days after transplanting the liver cancer tissue into 20 BalB/C nude mice by the above method, so that rodents with well-established liver cancer were divided into 3 groups (see FIGS. 22A, 22B, and 22C), a solvent control (DMSO), a hit (M2) material at 40 mg/kg, and BI2536 at 4 mg/kg were injected into the abdominal cavity once every two days using less than 1.5% DMSO as a solvent (vehicle), and once a week, MRI images were used to select (follow up) rodents with constant tissue growth. Then, when the rapidly growing cancer tissue was 1 cm or less, the cancer tissue was observed after sacrificing the mice (11 treatments for 3 weeks).
On the technique in general: In xenograft studies the graft and the host belong to different species.

Take `Cn1c2nc(=O)[nH]c(=O)c-2nc2ccccc21` [Compound 2, 10-methyl-2H,3H,4H,10H-benzo[g]pteridine-2,4-dione]: in assay [1], the “number of cancer cells” value is on record as “remarkably reduced the number of cancer cells in a dose-dependent manner”. The “areas of liver cancer cells” value in assay [2] was “remarkably reduced in a dose-dependent manner”. In the assay on PLK1, the “position of PLK1” value is on record as “difficult for PLK1 to be located in a normal position” and the “r-tubulin located in the centrosome (staining / position)” value is given as “weakly stained”. Further, in assay [3], the “degree of staining of NCAPG2 in the chromosome arm and kinetochore” value is “reduced”. Further, the “proportion of polyploid cells” value in the assay with SNU-449 is “not increased at all the treated concentrations”. Besides, the “proportion of phospho-histone H3-positive cells” value in the assay on SNU-449 (compared to CT) was “decreased”. The “progression of the HCC xenograft calculated by the growth inhibition index” value in assay [4] (BI2536 1 mg/kg, 19 injections) is on record as “suppressed the progression of the HCC xenograft”. The “growth of tumor cells (macroscopic morphology, MRI)” value in assay [4] (BI2536 1 mg/kg, 19 injections, 5 times/week) is on record as “the growth of tumor cells was suppressed”. The mitotic index result in assay [4] (histological staining, compared to the control) is reported as “decreased”. In assay [5], the “volume of the cancer tissue” value was “reduced remarkably as the dose of M2 was increased” and the “weight of the cancer tissue” value was “reduced remarkably as the dose of M2 was increased”. Moreover, in the assay on human liver cancer PDX, the “volume of the cancer tissue” value is “reduced remarkably” and the “weight of the cancer tissue” value was “reduced remarkably”.
